Reference: ChEMBL document CHEMBL5303573, “Mapping human microbiome drug metabolism by gut bacteria and their genes” (Nature, 2019)

Assays:
[1] = parabacteroides distasonis, 12 h, 2 µM
[2] = The drug is tested on Anaerococcus hydrogenalis strain: DSM7454 for biotransformation. The drug concentrations were measured before and after a 12-h incubation by liquid-chromatography-coupled mass spectrometry (LC–MS); conditions: 2 µM
[3] = The drug is tested on Collinsella aerofaciens strain: ATCC25986 for biotransformation. The drug concentrations were measured before and after a 12-h incubation by liquid-chromatography-coupled mass spectrometry (LC–MS); conditions: 2 µM
[4] = The drug is tested on Parabacteroides merdae strain: ATCC43184 for biotransformation. The drug concentrations were measured before and after a 12-h incubation by liquid-chromatography-coupled mass spectrometry (LC–MS); conditions: 2 µM
[5] = The drug is tested on Providencia stuartii strain: ATCC25827 for biotransformation. The drug concentrations were measured before and after a 12-h incubation by liquid-chromatography-coupled mass spectrometry (LC–MS); conditions: 2 µM
[6] = The drug is tested on Coprococcus comes strain: ATCC27758 for biotransformation. The drug concentrations were measured before and after a 12-h incubation by liquid-chromatography-coupled mass spectrometry (LC–MS); assay type: ADME; set-up: dose 2 uM, timepoint 0 vs 12 hours; conditions: 2 µM
[7] = The drug is tested on Enterococcus faecalis strain: V583 for biotransformation. The drug concentrations were measured before and after a 12-h incubation by liquid-chromatography-coupled mass spectrometry (LC–MS); conditions: 2 µM
[8] = segatella copri, 12 h, 2 µM
[9] = The drug is tested on Ruminococcus gnavus strain: ATCC29149 for biotransformation. The drug concentrations were measured before and after a 12-h incubation by liquid-chromatography-coupled mass spectrometry (LC–MS); conditions: mediterraneibacter gnavus, 2 µM
[10] = enterocloster bolteae, 12 h, 2 µM
[11] = bacteroides fragilis, 12 h, 2 µM
[12] = The drug is tested on Clostridium scindens strain: ATCC35704 for biotransformation. The drug concentrations were measured before and after a 12-h incubation by liquid-chromatography-coupled mass spectrometry (LC–MS); conditions: 2 µM
[13] = limosilactobacillus reuteri cf48-3a, 12 h, 2 µM
[14] = The drug is tested on Clostridium sporogenes strain: ATCC15579 for biotransformation. The drug concentrations were measured before and after a 12-h incubation by liquid-chromatography-coupled mass spectrometry (LC–MS); conditions: 2 µM
[15] = The drug is tested on Bacteroides fragilis strain: HMW615 for biotransformation. The drug concentrations were measured before and after a 12-h incubation by liquid-chromatography-coupled mass spectrometry (LC–MS); conditions: 2 µM
[16] = The drug is tested on Enterobacter cancerogenus strain: ATCC35316 for biotransformation. The drug concentrations were measured before and after a 12-h incubation by liquid-chromatography-coupled mass spectrometry (LC–MS); conditions: 2 µM
[17] = The drug is tested on Odoribacter splanchnicus strain: fecal isolate for biotransformation. The drug concentrations were measured before and after a 12-h incubation by liquid-chromatography-coupled mass spectrometry (LC–MS); conditions: 2 µM
[18] = The drug is tested on Eubacterium hallii strain: DSM3353 for biotransformation. The drug concentrations were measured before and after a 12-h incubation by liquid-chromatography-coupled mass spectrometry (LC–MS); conditions: anaerobutyricum hallii, 2 µM
[19] = The drug is tested on Clostridium sp. strain: fecal isolate for biotransformation. The drug concentrations were measured before and after a 12-h incubation by liquid-chromatography-coupled mass spectrometry (LC–MS); conditions: 2 µM

Row | Compound | Bacterial Biotransformation [1] | Bacterial Biotransformation [2] | Bacterial Biotransformation [3] | Bacterial Biotransformation [4] | Bacterial Biotransformation [5] | Bacterial Biotransformation [6] | Bacterial Biotransformation [7] | Bacterial Biotransformation [8] | Bacterial Biotransformation [9] | Bacterial Biotransformation [10] | Bacterial Biotransformation [11] | Bacterial Biotransformation [12] | Bacterial Biotransformation [13] | Bacterial Biotransformation [14] | Bacterial Biotransformation [15] | Bacterial Biotransformation [16] | Bacterial Biotransformation [17] | Bacterial Biotransformation [18] | Bacterial Biotransformation [19]
1 | COc1cc2nc(N3CCN(C(=O)c4ccco4)CC3)nc(N)c2cc1OC [PRAZOSIN] | Compound NOT metabolized | Compound NOT metabolized | Compound NOT metabolized | Compound NOT metabolized | Compound NOT metabolized | Compound NOT metabolized | Compound NOT metabolized | Compound NOT metabolized | – | Compound NOT metabolized | – | – | Compound NOT metabolized | – | Compound NOT metabolized | Compound NOT metabolized | Compound NOT metabolized | Compound NOT metabolized | –
2 | CCN(CC)CCNC(C(=O)OCCC(C)C)c1ccccc1.Cl.Cl (centres undefined) | Compound NOT metabolized | Compound NOT metabolized | Compound NOT metabolized | – | Compound NOT metabolized | Compound NOT metabolized | Compound NOT metabolized | Compound NOT metabolized | Compound NOT metabolized | Compound NOT metabolized | – | Compound NOT metabolized | Compound NOT metabolized | Compound NOT metabolized | Compound NOT metabolized | Compound NOT metabolized | Compound NOT metabolized | Compound NOT metabolized | –
3 | Cc1ccc(S(=O)(=O)NC(=O)NN2CCCCCC2)cc1 [TOLAZAMIDE] | Compound metabolized | Compound NOT metabolized | – | – | – | Compound NOT metabolized | Compound NOT metabolized | Compound metabolized | Compound NOT metabolized | Compound NOT metabolized | Compound metabolized | Compound NOT metabolized | – | – | Compound metabolized | Compound NOT metabolized | Compound metabolized | Compound metabolized | Compound metabolized
4 | O=C1C(CC[S+]([O-])c2ccccc2)C(=O)N(c2ccccc2)N1c1ccccc1 (centres undefined) [SULFINPYRAZONE] | Compound NOT metabolized | Compound NOT metabolized | Compound NOT metabolized | Compound NOT metabolized | Compound NOT metabolized | Compound NOT metabolized | Compound NOT metabolized | Compound NOT metabolized | Compound NOT metabolized | Compound NOT metabolized | Compound metabolized | – | Compound NOT metabolized | – | Compound metabolized | Compound metabolized | Compound metabolized | Compound NOT metabolized | –
5 | c1ccc2[nH]c(-c3cscn3)nc2c1 [THIABENDAZOLE] | – | Compound NOT metabolized | Compound NOT metabolized | – | Compound NOT metabolized | Compound NOT metabolized | Compound NOT metabolized | Compound NOT metabolized | Compound NOT metabolized | Compound NOT metabolized | – | Compound NOT metabolized | Compound NOT metabolized | Compound NOT metabolized | Compound NOT metabolized | Compound NOT metabolized | – | Compound NOT metabolized | Compound NOT metabolized
6 | OCCOCCN1CCN(C2=Nc3ccccc3Sc3ccccc32)CC1 [QUETIAPINE] | – | Compound NOT metabolized | Compound NOT metabolized | Compound NOT metabolized | – | Compound NOT metabolized | – | Compound NOT metabolized | Compound NOT metabolized | Compound NOT metabolized | Compound NOT metabolized | Compound NOT metabolized | Compound NOT metabolized | – | Compound NOT metabolized | Compound NOT metabolized | Compound NOT metabolized | Compound NOT metabolized | –

Now from value to compound:

Row | Bacterial Biotransformation [1] | Bacterial Biotransformation [2] | Bacterial Biotransformation [3] | Bacterial Biotransformation [4] | Bacterial Biotransformation [5] | Bacterial Biotransformation [6] | Bacterial Biotransformation [7] | Bacterial Biotransformation [8] | Bacterial Biotransformation [9] | Bacterial Biotransformation [10] | Bacterial Biotransformation [11] | Bacterial Biotransformation [12] | Bacterial Biotransformation [13] | Bacterial Biotransformation [14] | Bacterial Biotransformation [15] | Bacterial Biotransformation [16] | Bacterial Biotransformation [17] | Bacterial Biotransformation [18] | Bacterial Biotransformation [19] | Compound
7 | Compound metabolized | Compound NOT metabolized | Compound NOT metabolized | Compound metabolized | Compound NOT metabolized | Compound NOT metabolized | Compound NOT metabolized | Compound NOT metabolized | Compound NOT metabolized | Compound NOT metabolized | Compound metabolized | Compound NOT metabolized | Compound NOT metabolized | Compound NOT metabolized | Compound metabolized | Compound NOT metabolized | Compound metabolized | Compound NOT metabolized | – | CCCCc1nc(Cl)c(CO)n1Cc1ccc(-c2ccccc2-c2nn[nH]n2)cc1 [LOSARTAN]
8 | Compound NOT metabolized | Compound metabolized | – | Compound NOT metabolized | Compound NOT metabolized | – | Compound NOT metabolized | Compound NOT metabolized | Compound NOT metabolized | – | Compound metabolized | Compound NOT metabolized | Compound metabolized | – | Compound NOT metabolized | Compound NOT metabolized | Compound metabolized | Compound NOT metabolized | Compound metabolized | CCCc1nn(C)c2c(=O)[nH]c(-c3cc(S(=O)(=O)N4CCN(C)CC4)ccc3OCC)nc12.O=C(O)CC(O)(CC(=O)O)C(=O)O [SILDENAFIL CITRATE]
9 | Compound NOT metabolized | Compound NOT metabolized | Compound NOT metabolized | Compound NOT metabolized | Compound NOT metabolized | Compound NOT metabolized | Compound NOT metabolized | Compound NOT metabolized | – | Compound NOT metabolized | Compound NOT metabolized | Compound NOT metabolized | Compound NOT metabolized | Compound NOT metabolized | Compound NOT metabolized | Compound NOT metabolized | – | Compound NOT metabolized | – | O=c1n(CCCN2CCN(c3cccc(Cl)c3)CC2)nc2ccccn12 [TRAZODONE]
10 | – | Compound NOT metabolized | Compound NOT metabolized | – | Compound NOT metabolized | Compound NOT metabolized | Compound NOT metabolized | Compound NOT metabolized | – | Compound NOT metabolized | – | Compound NOT metabolized | – | – | Compound NOT metabolized | Compound NOT metabolized | – | Compound NOT metabolized | – | CN(C)CCc1c[nH]c2ccc(Cn3cncn3)cc12.O=C(O)c1ccccc1 [RIZATRIPTAN BENZOATE]
